Tests used:
Type in all cases: in vivo
[1] = system: monocotylidonous and dicotylidonous weed and crop plants; experiment: Herbicidal post-emergence action (other test plants); details: post-emergence method, 80 g/ha
Outline: (§1)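 One-leaf-stage greenhouse plants sprayed with WP at graded amounts (600 l/ha, 0.2% wetting agent); ~3 wk later, visual % effect rated vs untreated controls, 100% = dead, 0% = like control.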

[2] = system: monocotylidonous and dicotylidonous weed and crop plants; experiment: Herbicidal pre-emergence action (other test plants); details: pre-emergence method, 80 g/ha, greenhouse, visual assessment vs untreated controls
Outline: (§2)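 Seeds sown in sandy loam and covered with soil; WP-formulated compounds applied as aqueous suspension (600 l/ha water, 0.2% wetting agent) to the soil surface at various rates. Greenhouse-grown; emergence damage scored visually after three weeks versus untreated controls (0% = like control, 100% = plants dead).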

[3] = system: Setaria viridis; experiment: Herbicidal post-emergence action; details: post-emergence method, 80 g/ha
Outline: as §1

[4] = system: Echinocloa crus-galli; experiment: Herbicidal post-emergence action; details: post-emergence method, 80 g/ha
Outline: as §1

[5] = system: Alopecurus myosuroides; experiment: Herbicidal post-emergence action; details: post-emergence method, 80 g/ha
Outline: as §1

[6] = system: Lolium multiflorum; experiment: Herbicidal post-emergence action; details: post-emergence method, 80 g/ha
Outline: as §1

[7] = system: Setaria viridis; experiment: Herbicidal pre-emergence action; details: pre-emergence method, 80 g/ha, greenhouse, visual assessment vs untreated controls
Outline: as §2

[8] = system: Echinocloa crus-galli; experiment: Herbicidal pre-emergence action; details: pre-emergence method, 80 g/ha, greenhouse, visual assessment vs untreated controls
Outline: as §2

[9] = system: Alopecurus myosuroides; experiment: Herbicidal pre-emergence action; details: pre-emergence method, 80 g/ha, greenhouse, visual assessment vs untreated controls
Outline: as §2

[10] = system: Lolium multiflorum; experiment: Herbicidal pre-emergence action; details: pre-emergence method, 80 g/ha, greenhouse, visual assessment vs untreated controls
Outline: as §2

| SMILES | herbicidal effect against AVEFA (Avena fatua) [1] [%] | herbicidal effect AVEFA [2] [%] | herbicidal effect against SETVI (Setaria viridis) [3] [%] | herbicidal effect against ECHCG (Echinochloa crus-galli) [4] [%] | herbicidal effect against ALOMY (Alopecurus myosuroides) [5] [%] | herbicidal effect against LOLMU (Lolium multiflorum) [6] [%] | herbicidal effect SETVI [7] [%] | herbicidal effect ECHCG [8] [%] | herbicidal effect ALOMY [9] [%] | herbicidal effect LOLMU [10] [%] |
| --- | --- | --- | --- | --- | --- | --- | --- | --- | --- | --- |
| COC(=O)OC1=C(c2c(C)cc(C)cc2C)C(=O)C2CC3(CC12)OCC(C)CO3 (mixture of isomers) [I-c-53] | 80 | 50 | 90 | 90 | 100 | 100 | 60 | 0 | 100 | 90 |
| CCOC(=O)OC1=C(c2c(C)cc(C)cc2C)C(=O)C2CC3(CC12)OCCCCO3 (racemic) [I-c-50] | 0 | 0 | 80 | 80 | 60 | 100 | 0 | 0 | 30 | 100 |
| Cc1cc(C)c(C2=C(O)C3CC4(CC3C2=O)OCCCCO4)c(C)c1 (centres unmarked) [I-a-40] | 60 | 40 | 80 | 90 | 80 | 90 | 50 | 80 | 50 | 100 |
| C=C1CC2C(=O)C(c3c(C)cc(C)cc3CC)=C(O)C2C1 (centres unmarked) [I-a-55] | 0 | 60 | 100 | 100 | 20 | 40 | 90 | 100 | 60 | 50 |
| CCC(=O)OC1=C(c2c(CC)cc(C)cc2CC)C(=O)C2CC3(CC12)OCCCO3 (centres unmarked) [I-b-24] | 100 | 70 | 100 | 100 | 100 | 100 | 40 | 100 | 70 | 100 |
| C=C1C[C@@H]2C(O)=C(c3c(C)cc(C)cc3C)C(=O)[C@@H]2C1 (relative stereo) [I-a-36] | 0 | 70 | 90 | 90 | 50 | 90 | 80 | 80 | 60 | 90 |
| CCc1cc(C)cc(CC)c1C1=C(OC(=O)C(C)C)C2CC3(CC2C1=O)OCCS3 (mixture of isomers) [I-b-21] | 90 | 80 | 90 | 100 | 90 | 100 | 20 | 80 | 80 | 100 |
| C=C1CC2C(=O)C(c3c(C)cc(C)cc3C)=C(OC(=O)OC)C2C1 (racemic) [I-c-46] | 0 | 50 | 90 | 80 | 40 | 90 | 80 | 80 | 80 | 70 |
| COc1cc(C)cc(C)c1C1=C(OC(=O)C(C)C)C2CC3(CC2C1=O)OCCCO3 (centres unmarked) [I-b-64] | 100 | 50 | 100 | 100 | 100 | 100 | 90 | 0 | 60 | 100 |
| Cc1cc(C)c(C2=C(OC(=O)C(C)(C)CCl)C3CC4(COC(C)(C)O4)CC3C2=O)c(C)c1 (mixture of isomers) [I-b-51] | 0 | 30 | 40 | 100 | 90 | 60 | 0 | 30 | 80 | 70 |
| CCOC(=O)OC1=C(c2c(CC)cc(C)cc2CC)C(=O)C2CC3(CC12)OCCS3 (mixture of isomers) [I-c-30] | 40 | 90 | 70 | 100 | 80 | 100 | 60 | 80 | 100 | 100 |
| CCC(C)(C)C(=O)OC1=C(c2c(C)cc(C)cc2C)C(=O)C2CC3(COC(C)(C)O3)CC12 (mixture of isomers) [I-b-45] | 0 | 40 | 40 | 90 | 80 | 90 | 30 | 20 | 90 | 60 |
| Cc1cc(C)c(C2=C(OC(=O)C(C)C)C3CC4(CC3C2=O)OCCO4)c(C)c1 (centres unmarked) [I-b-39] | 20 | 50 | 90 | 100 | 60 | 100 | 0 | 10 | 60 | 80 |
| CCc1cc(C)cc(CC)c1C1=C(OC(=O)C(C)(C)C)C2CC3(CC2C1=O)OCCCS3 (mixture of isomers) [I-b-20] | 30 | 90 | 0 | 100 | 0 | 60 | 90 | 80 | 100 | 100 |
